Test results reported in paper PMC6017585, “Molecular Basis for Converting (2S)-Methylsuccinyl-CoA Dehydrogenase into an Oxidase” (Molecules : A Journal of Synthetic Chemistry and Natural …, 2017).

Legend:
[1] = molecular target: T1, (2S)-methylsuccinyl-CoA dehydrogenase (Mcd) (Cereibacter sphaeroides, UniProt D3JV03, W315F/T317G/E377N); conditions: dioxygen as electron acceptor, substrate made in situ from ethylmalonyl-CoA, pH 7.8, 30 °C
[2] = molecular target: T2, (2S)-methylsuccinyl-CoA dehydrogenase (Mcd) (Cereibacter sphaeroides, UniProt D3JV03); conditions: ETF as electron acceptor (55 µM), pH 7.8, 30 °C
T2 sequence (D3JV03 whole entry): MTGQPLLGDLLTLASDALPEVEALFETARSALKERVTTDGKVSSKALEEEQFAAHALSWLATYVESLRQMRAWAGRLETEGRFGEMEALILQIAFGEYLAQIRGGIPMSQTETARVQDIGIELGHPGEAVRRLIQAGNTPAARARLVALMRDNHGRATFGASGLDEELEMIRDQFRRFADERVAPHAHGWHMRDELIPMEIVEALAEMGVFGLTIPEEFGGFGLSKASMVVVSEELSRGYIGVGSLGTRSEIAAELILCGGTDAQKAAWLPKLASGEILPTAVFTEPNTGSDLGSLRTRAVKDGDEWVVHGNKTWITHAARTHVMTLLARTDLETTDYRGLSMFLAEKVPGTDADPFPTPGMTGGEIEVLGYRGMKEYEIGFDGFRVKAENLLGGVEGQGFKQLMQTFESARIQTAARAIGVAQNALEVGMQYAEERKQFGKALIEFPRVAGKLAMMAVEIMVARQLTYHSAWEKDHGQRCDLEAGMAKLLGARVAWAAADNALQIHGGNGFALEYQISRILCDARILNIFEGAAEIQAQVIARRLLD

[3] = molecular target: (2S)-methylsuccinyl-CoA dehydrogenase (Mcd) (Cereibacter sphaeroides, UniProt D3JV03, T317G); conditions: dioxygen as electron acceptor, substrate made in situ from ethylmalonyl-CoA, pH 7.8, 30 °C
Chain of (2S)-methylsuccinyl-CoA dehydrogenase (Mcd) (Cereibacter sphaeroides, UniProt D3JV03, T317G) (D3JV03 whole entry T317G): as the sequence (D3JV03 whole entry) above, with T317G counted along it

[4] = molecular target: T3, ETF (electron transfer flavoprotein) (Cereibacter sphaeroides, UniProt Q9AQC3+Q9AQC4); assay: absorbance of ETF-bound FAD at […] nm; type: binding; conditions: 55 µM ETF reduced by 0.1 µM Mcd, pH 7.8, 30 °C
T3 construct: gene etfA; plasmid pTE392 (pCDFDuet-1), alpha subunit N-terminal His6-tag, E. coli BL21 (DE3), heterodimer
T3 sequence (Q9AQC4 entry or part of it): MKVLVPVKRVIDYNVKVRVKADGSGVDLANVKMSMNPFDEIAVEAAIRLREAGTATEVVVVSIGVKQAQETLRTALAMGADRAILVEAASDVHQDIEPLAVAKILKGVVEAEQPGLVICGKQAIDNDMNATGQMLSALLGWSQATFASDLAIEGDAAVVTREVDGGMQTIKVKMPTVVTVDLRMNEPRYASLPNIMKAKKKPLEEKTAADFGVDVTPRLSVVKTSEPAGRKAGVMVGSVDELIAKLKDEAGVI
T3 sequence (Q9AQC3 entry or part of it): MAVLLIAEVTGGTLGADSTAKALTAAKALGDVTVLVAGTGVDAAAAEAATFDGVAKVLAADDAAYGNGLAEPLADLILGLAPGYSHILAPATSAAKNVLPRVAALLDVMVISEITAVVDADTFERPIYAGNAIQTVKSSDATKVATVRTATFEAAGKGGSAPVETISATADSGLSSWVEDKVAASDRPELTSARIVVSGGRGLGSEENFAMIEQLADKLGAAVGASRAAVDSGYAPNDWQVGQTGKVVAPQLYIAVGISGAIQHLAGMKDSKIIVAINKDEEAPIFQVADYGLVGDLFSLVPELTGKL

[5] = molecular target: T2, (2S)-methylsuccinyl-CoA dehydrogenase (Mcd); conditions: holoenzyme, pH 7.7, 25 °C
[6] = molecular target: T1, (2S)-methylsuccinyl-CoA dehydrogenase (Mcd); conditions: FAD-reconstituted enzyme, 12 µM (2S)-methylsuccinyl-CoA, pH 7.5

T1 sequence (D3JV03 whole entry W315F/T317G/E377N): as the sequence (D3JV03 whole entry) above, with W315F, T317G, E377N counted along it

Compound: C[C@@H](CC(=O)O)C(=O)SCCNC(=O)CCNC(=O)[C@H](O)C(C)(C)COP(=O)(O)OP(=O)(O)OC[C@H]1O[C@@H](n2cnc3c(N)ncnc32)[C@H](O)[C@@H]1OP(=O)(O)O (mixture of isomers) [(2S)-methylsuccinyl-CoA]
- LC mesaconyl-CoA formation; FAD absorbance at 440 nm [1]: The re-oxidation of the two enzymes was accompanied by product (mesaconyl-CoA) formation
- LC-MS mesaconyl-CoA formation; FAD / ETF absorbance at 440 nm [2]: Mcd showed a fast electron transfer from the CTC to ETF
- LC mesaconyl-CoA formation; FAD absorbance at 440 nm [3]: The re-oxidation of the two enzymes was accompanied by product (mesaconyl-CoA) formation

Compound: Cc1cc2nc3c(=O)[nH]c(=O)nc-3n(C[C@H](O)[C@H](O)[C@H](O)COP(=O)(O)OP(=O)(O)OC[C@H]3O[C@@H](n4cnc5c(N)ncnc54)[C@H](O)[C@@H]3O)c2cc1C [FAD]
- absorbance of ETF-bound FAD at 440 nm [4]: allowed for the direct observation of ETF-bound FAD
- co-purification; visible absorbance of bound flavin at 440 nm [5]: Concentration of Mcd, which eluted with bound FAD cofactor
- 50 kDa ultrafiltration of FAD; flow-through spectrum [6]: FAD does not dissociate from the enzyme during catalysis
